In US5260465A, “Inhibitors of farnesyl protein transferase” (Merck & Co., Inc., priority 1991, dated 1993):

Columns and labels:
[1] = system: HMG-CoA reductase; details: cited from earlier work
[2] = system: Ras farnesylation; details: Hancock et al., Casey et al., Schafer et al.; cited from earlier work
[3] = target: T1, Farnesyl-protein transferase (FTase) from bovine brain (Bos taurus, UniProt P29702+P49355); test: Inhibition of Ras farnesylation in vitro (FTase assay with Ras-CVLS and [3H]FPP); assay type: biochemical; details: for IC50: Ras-CVLS 3.5 μM, 0.25 μM [3H]FPP, partially purified enzyme, compound (9) or (10), under assay conditions open dicarboxylate form
T1 construct: Farnesyl-protein transferase (FTase) from bovine brain was chromatographed on DEAE-Sephacel; from tissue; host or cells: bovine brain, partially purified (DEAE-Sephacel, N-octyl agarose, mono Q)
Protocol: The intrinsic farnesyl-protein transferase (FTase) activity of representative compounds of this invention was measured by the assay as described below:
Farnesyl-protein transferase (FTase) from bovine brain was chromatographed on DEAE-Sephacel (Pharmacia, 0-0.8M NaCl gradient elution), N-octyl agarose (Sigma, 0-0.6M NaCl gradient elution), and a mono Q HPLC column (Pharmacia, 0-0.3M NaCl gradient). Ras-CVLS (Cys-Val-Leu-Ser) at 3.5 μM, 0.25 μM [^3 H]FPP, and the indicated compounds were incubated with this partially purified enzyme preparation. The FTase inhibition data presented below is a measurement of the ability of the test compound to inhibit Ras farnesylation in vitro.

[4] = pH-dependent equilibrium / solution form of anhydride (9) and diacid (10), followed by UV; assay type: physicochemical; details: for predominant form in solution (diacid/anhydride equilibrium): in a solution, pH dependent
Source text: The equilibrium between diacid (10) and anhydride (9) in a solution is pH dependent. […] However, when basified with dil NaOH, this maximum shifted to λmax 243 run. This shift is clear evidence of opening of the anhydride into the diacid. [drawing 8]
The latter band underwent a hypsochromic shift to 240 run after addition of dil NAOH.

Row | IC50 [3] | predominant form in solution (diacid/anhydride equilibrium) [4] | reactivity with CH3OH ([4]; methanolic solution) | existence in solution by pH ([4]; in solution) | Structure (SMILES) | inhibition of HMG-CoA reductase [1] | Inhibition of Ras farnesylation in vivo [2] | Ras farnesyl transferase inhibitory activity of the diisopropylethylamine salt ([3]; open diacid (10) trapped as a diisopropylethylamine salt) | form under assay conditions ([4]; CH3OH-HEPES buffer solution (7:5), pH 7.5)
1 | – | – | – | – | CC[C@H](C)C(=O)O[C@H]1CCC=C2C=C[C@H](C)[C@H](CC[C@@H]3C[C@@H](O)CC(=O)O3)[C@H]21 [compactin] | inhibit HMG-CoA reductase | Inhibition of Ras farnesylation in vivo has been demonstrated | – | –
2 | 110 nM | predominates when the solution is acidic | reacts slowly with CH3 OH | – | CCCCCCCC/C=C\CCCCCCC1=C(C)C(=O)OC1=O [Compound (9)] | – | – | – | –
3 | – | – | – | – | CC[C@H](C)C(=O)O[C@H]1C[C@@H](C)C=C2C=C[C@H](C)[C@H](CC[C@@H]3C[C@@H](O)CC(=O)O3)[C@H]21 [lovastatin] | inhibit HMG-CoA reductase | Inhibition of Ras farnesylation in vivo has been demonstrated | – | –
4 | 110 nM | predominates when the solution is basic | – | exists in solution at pH 7 and above | CCCCCCCC/C=C\CCCCCC/C(C(=O)O)=C(\C)C(=O)O [Compound (10)] | – | – | without any loss of Ras farnesyl transferase inhibitory activity | exists substantially in the open dicarboxylate form
